Results from publication PMC11855827, “High-Throughput Screening of Five Compound Libraries for Anthelmintic Activity and Toxicity Leads to the Discovery of Two Flavonoid Compounds” (International Journal of Molecular Sciences, 2025).
Like-named read-outs stand apart in the source and are kept apart here. Marks after values point to notes of the source that are not given here.

Columns and labels:
[1] = tested on: T. circumcincta resistant strain; assay: Larval migration inhibition test (LMIT); set-up: species or system Teladorsagia circumcincta; settings: for inhibition at 100 µM: Teladorsagia circumcincta, 24 h, read-out: T. circumcincta LMIT (%)
Text: (§1) Eggs and third instar larvae (L3) of H. contortus from a field strain and a resistant strain of T. circumcincta were used in the current trials. These parasitic forms were obtained from fresh feces of Merino and Churra sheep experimentally infected at the experimental farm of the Instituto de Ganadería de Montaña (IGM, CSIC, Gruyeros, León, Spain) and purified according to previously described methods. Briefly, eggs were taken from fresh feces, washed, centrifuged and floated with a saturated sodium chloride solution, then concentrated, counted and used in the assays. L3 were obtained by culturing feces at 25 °C for 13 d. L3 larvae were […] in 0.5% sodium hypochlorite solution for 10 min at room temperature and washed to avoid excess salt. After washing, they were concentrated and counted for use.
(§2) The viability of H. contortus larvae was assessed by the larval migration inhibition test (LMIT) according to previously described methods. Briefly, 700 µL aliquots containing 500–600 L3 were prepared for each compound. […] After a 24 h incubation at 28 °C, the compound was removed by three washes, leaving a final volume of 1400 µL. After the washes, three 400 µL aliquots were taken from each tube and transferred to a 96-well plate with a MultiScreen mesh filter. The plates were incubated for a further 24 h at 28 °C to allow the motile L3 to pass through the 20 µm mesh for counting. Then, the number of larvae present in each well was counted to determine percentage of larval migration for each compound: % Larval migration=number of larvae migrating in compound wells/number of larvae migrating in negative control×100
(§3) For the larvae, ivermectin at 8.75 µg/mL and DMSO 0.5% (v/v) were used as controls and at least 12 replicates were performed. […] EC50 were determined by plotting the percentage of viability of the L1 against the concentration of each compound, using the nonlinear fit analysis provided by the SigmaPlot® 10.1.

[2] = tested on: C. elegans; assay: microbe, parasite or virus in culture; settings: Caenorhabditis elegans
[3] = tested on: H. contortus susceptible strain; assay: Larval migration inhibition test (LMIT); set-up: species or system Haemonchus contortus; settings: L3, 100 μM, NE = Not Effective at 100 μM, control ivermectin 8.75 µg/mL; for inhibition at 100 µM: Haemonchus contortus, 24 h
Text: as §1, §2, §3

[4] = tested on: C. elegans; assay: C. elegans motility dose-response (DR) assay; set-up: species or system Caenorhabditis elegans
[5] = tested on: C. elegans; settings: cited from earlier work
[6] = tested on: T. circumcincta resistant strain; assay: Egg hatch inhibition (EHI), ovicidal effect; set-up: species or system Teladorsagia circumcincta; settings: for T. circumcincta EHI (%) / inhibition at 100 µM: resistant strain, 100 μM, NE = Not Effective at 100 μM, control thiabendazole 0.1 µg/mL; for EC50 / inhibition at 100 µM: Teladorsagia circumcincta; for EC50: egg hatching, resistant T. circumcincta, nine replicates, read-out: Ovicidal Effect EC50 (μM) T. c
[7] = tested on: H. contortus susceptible strain; assay: Egg hatch inhibition (EHI), ovicidal effect; set-up: species or system Haemonchus contortus; settings: for inhibition at 100 µM / EC50: Haemonchus contortus; for inhibition at 100 µM / H. contortus EHI (%): susceptible strain, NE = Not Effective at 100 μM, control thiabendazole 0.1 µg/mL, 100 μM; for EC50: egg hatching, susceptible H. contortus, nine replicates, read-out: Ovicidal Effect EC50 (μM) H. c
[8] = in vitro; settings: C57BL/6, mouse
[9] = Mouse intestinal organoids' tolerance assay (alamarBlue); settings: C57BL/6, mouse
[10] = Spheroids toxicity assay (alamarBlue); assay type: cell-based; settings: human
Experimental: HepG2 cells were cultured as a monolayer under standard conditions, using DMEM/F12 medium supplemented with L-glutamine and 15 mM HEPES buffer (pH 7.2) supplemented with 10% fetal bovine serum (FBS) and antibiotic mixture (100 U/mL penicillin and 100 µg/mL streptomycin) at 37 °C and 5% CO2, according to previous published protocols.
Cells were detached from the culture flask using 0.25% trypsin solution and then centrifuged at 500× g for 6.5 min. After centrifugation, the supernatant was discarded, and the pellet was resuspended in culture medium. Cells were passed gently through a G27 needle several times and then counted. Cells were dispensed into a tissue treated Nunclon™ Sphera™ 96-well U-bottom plate (Thermo Scientific™, Waltham, MA, USA, 174925) in a final volume of 50 µL to a total of 2500 cells/well. In addition, another 50 µL of medium supplemented with Rat Tail Collagen I (Gibco™, Thermo Scientific™, Waltham, MA, USA, A1048301) was dispensed, to achieve a final concentration in a plate of 3 µg/mL for each well. The plate was centrifuged at 500× g for 1 min.
On Day 4, 100 µL of a serial dilution of the testing compounds were added to each well. For controls, 0.03% H2O2 (v/v) as positive control and 0.2% DMSO (v/v) as negative control were used.
To determine the viability of the spheroids to the testing compounds, a 20% of alamarBlue™ HS reagent (Invitrogen™, Thermo Fisher Scientific™, Waltham, MA, USA) was added on Day 7 and the results were read 24 h later using a Varioskan™ LUX (Thermo Scientific, USA, Instrument software ver. 1.00.37, Skanlt software ver. 5.0.0.42). All assays were conducted in duplicate across at least three independent experiments.

[11] = tested on: C. elegans
[12] = 0 h, read-out: Inhibition (%) 110 μM (0 h), C. elegans L4 motility, 110 μM, 0 h, mean ± SD of four experiments
[13] = 24 h, read-out: Inhibition (%) 110 μM (24 h), C. elegans L4 motility, 110 μM, 24 h, mean ± SD of four experiments
[14] = 24 h, read-out: Percentage of motility inhibition 24 h, Table S2, C. elegans SS assay, 110 μM, 24 h, averages of 4 data points
[15] = read-out: EC50 found in the literature
[16] = Caenorhabditis elegans, 24 h, read-out: EC50 (μM) at 24 h, C. elegans motility, DR assay, 24 h
[17] = resistant strain, L3, 100 μM, NE = Not Effective at 100 μM, control ivermectin 8.75 µg/mL
[18] = read-out: EC50 (μM) at 24 h, C. elegans motility, DR assay
[19] = C. elegans L4 motility, 110 μM, 0 h, mean ± SD of four experiments
[20] = C. elegans L4 motility, 110 μM, 24 h, mean ± SD of four experiments

## C[C@@H]1CC[C@@]2(OC1)O[C@H]1C[C@H]3[C@@H]4CC=C5C[C@@H](O[C@@H]6O[C@H](CO)[C@@H](O[C@@H]7O[C@@H](C)[C@H](O)[C@@H](O)[C@H]7O)[C@H](O)[C@H]6O[C@@H]6O[C@@H](C)[C@H](O)[C@@H](O)[C@H]6O)CC[C@]5(C)[C@H]4CC[C@]3(C)[C@H]1[C@@H]2C [Dioscin]
[1]
  inhibition at 100 µM: 0%
[2]; 0 h, read-out: Inhibition (%) 110 μM (0 h)
  inhibition at 110 µM: 12 ± 1%
[2]; 24 h, read-out: Inhibition (%) 110 μM (24 h)
  inhibition at 110 µM: 79 ± 2%
[3]
  inhibition at 100 µM: 0%
[4]; Caenorhabditis elegans, read-out: EC50 (μM) at 24 h, C. elegans motility, DR assay
  EC50: 37.8 ± 1.3 µM

## CO/N=C1\C[C@]2(C[C@@H]3C[C@@H](C/C=C(\C)C[C@@H](C)/C=C/C=C4\CO[C@@H]5[C@H](O)C(C)=C[C@@H](C(=O)O3)[C@]45O)O2)O[C@H](/C(C)=C/C(C)C)[C@H]1C [Moxidectin, reference compound]
[2]; [12]
  inhibition at 110 µM: 99 ± 1%
[2]; [13]
  inhibition at 110 µM: 85 ± 13%
[2]; [14]
  inhibition at 110 µM: 86%
[5]; [15]
  EC50: 0.03 µM
[4]; [16]
  EC50: 0.79 µM

## CCOc1ccc2nc3cc(N)ccc3c(N)c2c1 [Ethacridine lactate, reference compound]
[2]; [12]
  inhibition at 110 µM: 66 ± 26%
[2]; [13]
  inhibition at 110 µM: 87 ± 6%
[3]
  H. contortus LMIT (%): 4.9 ± 2.2%
[6]
  T. circumcincta EHI (%): 4.0 ± 1.5%
[7]
  inhibition at 100 µM: 55.8 ± 5.1%
[4]; [16]
  EC50: 50.1 ± 1 µM

## O=C(/C=C/c1ccccc1)c1ccccc1 [Chalcone]
[8]; Selective Index (SI) CC50/EC50 Ent/H. c
  selectivity ratio: > 13.5
[8]; Selective Index (SI) CC50/EC50 Ent/T. c
  selectivity ratio: > 5.1
[1]; [17]
  inhibition at 100 µM: 4.7 ± 1.5%
[2]; [12]
  inhibition at 110 µM: 30 ± 30%
[2]; [13]
  inhibition at 110 µM: 85 ± 15%
[9]
  CC50 at 3 d: > 50 µM
[5]; nematocidal, read-out: EC50 against C. elegans
  EC50: 52 ± 9 µM
[10]; HepG2 liver spheroids (3D culture), read-out: Citotoxicity CC50 (μM) Sph
  CC50 at 3 d: > 90 µM
[10]; pH 7.2, Selective Index (SI) CC50/EC50 Sph/H. c
  selectivity ratio: > 24.3
[10]; pH 7.2, Selective Index (SI) CC50/EC50 Sph/T. c
  selectivity ratio: > 9.2
[3]
  H. contortus LMIT (%): 45.7 ± 4.5%
[11]; 24 h, 110 µM
  Percentage of motility inhibition 24 h: 86%
[6]
  EC50: 9.8 ± 0.3 µM
  inhibition at 100 µM: 100%
[7]
  EC50: 3.7 ± 0.1 µM
  inhibition at 100 µM: 99.4 ± 0.1%
[4]; [18]
  EC50: 52.4 ± 1.4 µM

## CC1(C)[C@H](OC(=O)c2ccccc2)CC[C@]2(C)C3=C([C@@H](O)C[C@@H]12)[C@@]1(C)CC[C@@]2(C)CC[C@@](C)(COC(=O)c4ccccc4)C[C@H]2[C@]1(C)CC3 [3,29-dibenzoyl rarounitriol]
[1]; [17]
  T. circumcincta LMIT (%): 0.0 * %
[3]
  H. contortus LMIT (%): 0.0%
[11]; [19]
  Inhibition (%) 110 μM (0 h): 40 ± 22%
[11]; [20]
  Inhibition (%) 110 μM (24 h): 71 ± 19%
[6]
  T. circumcincta EHI (%): 0.0%
[7]
  H. contortus EHI (%): 0.0%
[4]; [18]
  EC50: 45.4 ± 5.1 µM

## CCOc1ccc2nc3cc(N)ccc3c(N)c2c1 [Ethacridine lactate monohydrate, reference compound]
[1]; [17]
  inhibition at 100 µM: 0%
[2]; 0 h, read-out: Percentage of motility inhibition 0 h, Table S2, C. elegans SS assay, 110 μM, 0 h, averages of 4 data points
  inhibition at 110 µM: 72%
[3]
  H. contortus LMIT (%): 0.0%
[11]; [19]
  Inhibition (%) 110 μM (0 h): 73 ± 17%
[11]; [20]
  Inhibition (%) 110 μM (24 h): 89 ± 4%
[6]
  T. circumcincta EHI (%): 0.0%
[7]
  H. contortus EHI (%): 54.8 ± 11.7%
[4]; [18]
  EC50: 28.2 ± 1 µM

## c1ccc2[nH]c(-c3cscn3)nc2c1 [Thiabendazole, reference compound]
[6]
  EC50: 1.53 ± 0.06 µM
  inhibition at 100 µM: 100%
[7]
  EC50: 0.28 ± 0.01 µM
  inhibition at 100 µM: 100%

## Ivermectin [reference compound]
[1]; [17]
  T. circumcincta LMIT (%): 100.0 ± 0.0%
[5]; [15]
  EC50: 0.19 µM
[3]
  H. contortus LMIT (%): 100.0 ± 0.0%
[11]
  Inhibition (%) 110 μM (0 h): 98 ± 1%
  Inhibition (%) 110 μM (24 h): 85 ± 14%
[4]; [18]
  EC50: 2.18 µM

## CC1(C)CCC[C@]2(C)[C@@H](C=O)C(C=O)=CC[C@@H]12 [Polygodial]
[2]; [12]
  inhibition at 110 µM: 0%
[2]; [13]
  inhibition at 110 µM: 93 ± 4%
[3]
  inhibition at 100 µM: 0%
[7]
  inhibition at 100 µM: 0%
[4]; [16]
  EC50: 33.2 ± 6.4 µM

## N=C(N/N=C/c1ccc(Cl)cc1)N/N=C/c1ccc(Cl)cc1 [Robenidine, reference compound]
[2]; [12]
  inhibition at 110 µM: 93 ± 5%
[2]; [13]
  inhibition at 110 µM: 81 ± 20%
[2]; [14]
  inhibition at 110 µM: 80%
[3]
  inhibition at 100 µM: 3.1 ± 6.9%
[7]
  inhibition at 100 µM: 59.7 ± 0.7%
[4]; [16]
  EC50: 32.3 ± 2.8 µM

## c1ccc([C@H]2CN3CCSC3=N2)cc1 [Levamisole, reference compound]
[2]; [12]
  inhibition at 110 µM: 87 ± 10%
[2]; [13]
  inhibition at 110 µM: 61 ± 3%
[5]; [15]
  EC50: 6.4 µM
[4]; [16]
  EC50: 1.91 µM
